Assays:
[1] = tested on: HCT-116 human colorectal carcinoma xenograft tumor; experiment: HCT-116 nude mouse xenograft model; format: in vivo, BALB/c nude mice; settings: i.p. every other day, 5-FU 25 mg/kg, D-res 100 mg/kg
Description: All animal studies were approved and performed according to Animal Care and Use Guidelines of the Animal Ethics Committee at Hong Kong Baptist University. BALB/c nude mice, SPF class, male, 6-8 weeks old, were purchased from BioLASCO, Taiwan. Before the xenograft experiment, the mice were acclimatized to SPF class laboratory conditions for a week.
HCT-116 cells in logarithmic growth phase were collected by trypsinization. After centrifugation and rinsing, cells were re-suspended in serum-free DMEM medium at 3×10^7 cells/mL. Nude mice were skin disinfected with 75% medical ethanol, subcutaneously injected with 100 μL of the HCT-116 cell suspension using a 25-G syringe to their left flank. The same procedure was repeated for the tumor cell injection to the right flank.
Seven days after tumor cell injection, 24 mice with tumor volumes of 32 mm^3 to 178 mm^3 were randomly assigned into 3 groups; the average initial tumor volumes in each group of mice were 78.04±7.76 mm^3 (vehicle, 8 mice), 78.76±9.40 mm^3 (5-FU, 8 mice), 78.01±7.75 mm^3 (D-res, 8 mice) respectively.
Vehicle solution: 2.5% Ethanol and Cremphor EL (1:1 v/v) dissolved in physiological saline.
5-FU solution: 5-FU powder was dissolved in 2.5% Ethanol and Cremphor EL to a concentration of 5 mg/mL.
D-res solution: Dihydro-resveratrol powder was dissolved in 2.5% Ethanol and Cremphor EL solution to a concentration of 20 mg/mL.
Vehicle group (n=8): 2.5% Ethanol and Cremphor EL solution was intraperitoneally injected every other day for 21 days.
5-FU group (n=8): 5-FU solution was given to mice at 25 mg/kg by intraperitoneal injection every other day for 21 days.
D-res group (n=8): D-res solution was given to mice at 100 mg/kg by intraperitoneal injection every other day for 21 days. This is equivalent to a dosage of no less than 8.13 mg/kg of bodily weight in human.

[2] = tested on: Trichophyton rubrum; experiment: anti-fungal growth inhibition, T. rubrum; format: cell-based; settings: Trichophyton rubrum, 168 h, T. rubrum, one week, 30° C., OD 510 nm; for inhibition at 25 µM: read-out: Inhibition rate (25 μM); for inhibition at 50 µM: read-out: Inhibition rate (50 μM); for inhibition at 100 µM: read-out: Inhibition rate (100 μM)
Description: (§1) Evaluation of anti-fungal activity. In a single well of the 96-well microplate, 10 μL of the testing compound is added into 190 μL of growth medium (Difco™ YM) containing an overnight culture of Trichophyton rubrum or Trichophyton mentagrophytes at a density of approximately 5×10^5 CFU. The testing compounds include dihydro-resveratrol and DR1 to DR11. Wells incubated with 10 μL 0.5% DMSO only (i.e. no testing compound) are served as the experimental control of fungal growth whilst those incubated with growth medium only (i.e. no fungi) are served as the negative control. […] The percentage of growth inhibition of T. mentagrophytes by the different concentrations of testing compounds is shown in Table 10 whilst the percentage of growth inhibition of T. rubrum is shown in Table 11. The images of T. mentagrophytes culture are captured post treatment of dihydro-resveratrol (100 μM) and DR8 (100 μM) when compared to the growth of experimental control and negative control (FIG. 30).

[3] = tested on: Trichophyton mentagrophytes; experiment: anti-fungal growth inhibition, T. mentagrophytes; format: cell-based; settings: Trichophyton mentagrophytes, 168 h, T. mentagraphytes, one week, 30° C., OD 510 nm; for inhibition at 25 µM: read-out: Inhibition rate (25 μM); for inhibition at 50 µM: read-out: Inhibition rate (50 μM); for inhibition at 100 µM: read-out: Inhibition rate (100 μM)
Description: as §1

[4] = ABTS radical decolorization assay (antioxidant capacity); format: biochemical; settings: 15 min, 734 nm
[5] = tested on: Streptococcus sobrinus; experiment: anti-bacterial growth inhibition, S. sobrinus; format: cell-based; settings: Streptococcus sobrinus, S. sobrinus, 10 hours, 30° C., OD 600 nm; for inhibition at 25 µM: read-out: Inhibition rate (25 μM); for inhibition at 50 µM: read-out: Inhibition rate (50 μM); for inhibition at 100 µM: read-out: Inhibition rate (100 μM)
Description: (§2) Evaluation of anti-bacterial activity. In a single well of the 96-well microplate, 10 μL of the testing compound is added into 190 μL of growth medium growth medium (BBL™ Brain Heart Infusion) containing an overnight culture of Streptococcus mutans or Streptococcus sobrinus at a density of approximately 5×10^5 CFU. The testing compounds include dihydro-resveratrol and DR1 to DR11. Wells incubated with 10 μL 0.5% DMSO only (i.e. no testing compound) are served as the experimental control of bacterial growth whilst those incubated with growth medium only (i.e. no bacteria) are served as the negative control. […] The percentage of growth inhibition of S. mutans by the different concentrations of testing compounds is shown in Table 12 whereas the percentage of growth inhibition of S. sobrinus is shown in Table 13. The images of S. mutans culture are captured post treatment of dihydro-resveratrol (100 μM) and DR8 (100 μM) when compared to the growth of experimental control and negative control (FIG. 31).

[6] = tested on: Streptococcus mutans; experiment: anti-bacterial growth inhibition, S. mutans; format: cell-based; settings: Streptococcus mutans, S. mutans, 10 hours, 30° C., OD 600 nm; for inhibition at 25 µM: read-out: Inhibition rate (25 μM); for inhibition at 50 µM: read-out: Inhibition rate (50 μM); for inhibition at 100 µM: read-out: Inhibition rate (100 μM)
Description: as §2

Structure (SMILES) | inhibition at 25 µM [2] | inhibition at 50 µM [2] | inhibition at 100 µM [2] | inhibition at 25 µM [3] | inhibition at 50 µM [3] | inhibition at 100 µM [3] | Trolox equivalent (mg), antioxidant capacity [4] | inhibition at 25 µM [5] | inhibition at 50 µM [5] | inhibition at 100 µM [5] | inhibition at 25 µM [6] | inhibition at 50 µM [6] | inhibition at 100 µM [6] | further results
O=c1[nH]cc(F)c(=O)[nH]1 [Compound 5-FU, fluorouracil, reference compound] | – | – | – | – | – | – | – | – | – | – | – | – | – | Tumor Volume (mm^3) ([1]; Day 1 (initial)): 78.76 ± 9.40 mm^3; Tumor Volume (mm^3) ([1]; Day 4): 128.05 ± 12.25 mm^3; Tumor Volume (mm^3) ([1]; Day 7): 187.75 ± 21.56 mm^3; Tumor Volume (mm^3) ([1]; Day 10): 286.6 ± 28.89 mm^3; Tumor Volume (mm^3) ([1]; Day 13): 419.1 ± 45.77 mm^3; Tumor Volume (mm^3) ([1]; Day 16): 489.8 ± 160.66 mm^3; Tumor Volume (mm^3) ([1]; Day 19): 514.17 ± 160.66 mm^3; Tumor Volume (mm^3) ([1]; Day 21): 583.6 ± 160.66 mm^3; Tumor Volume (mm^3) ([1]; Day 22): 655.69 ± 160.66 mm^3; Tumor weight ([1]; treated for 21 days): 0.68 ± 0.08 g
CCOC(=O)COc1ccc(CCc2cc(OCC(=O)OCC)cc(OCC(=O)OCC)c2)cc1 [DR1] | 3.25% | 1.15% | 22.6% | 4.33% | 11.2% | 36.4% | 105.736 mg | 9.96% | 27.7% | 14.2% | 2.31% | 8.55% | 4.78% | –
CCCOc1ccc(CCc2cc(OCCC)cc(OCCC)c2)cc1 [DR2] | 14.1% | 18.3% | 37.8% | 4.72% | 9.81% | 33.7% | 30.178 mg | 6.33% | 19.9% | 19% | 0.04% | 3.62% | 3.65% | –
C=CCOc1ccc(CCc2cc(OCC=C)cc(OCC=C)c2)cc1 [DR3] | 4.55% | 4.25% | 22.3% | 4.64% | 4.77% | 20.1% | 119.325 mg | 11.7% | 24.2% | 21.1% | 4.18% | 2.61% | 7.05% | –
CCCC(=O)Oc1ccc(CCc2cc(OC(=O)CCC)cc(OC(=O)CCC)c2)cc1 [DR4] | 11.2% | 16.6% | 36.1% | 6.03% | 10.4% | 32.6% | 94.277 mg | 7.35% | 20.6% | 18.1% | 6.64% | 3.99% | 6.35% | –
O=C(Oc1ccc(CCc2cc(OC(=O)c3ccc(Cl)cc3)cc(OC(=O)c3ccc(Cl)cc3)c2)cc1)c1ccc(Cl)cc1 [DR5] | 0.71% | 4.25% | 5.78% | 3.01% | 6.93% | 14.1% | 0 mg | 12.2% | 26.2% | 18.6% | 2.67% | 8.35% | 2.22% | –
COc1ccc(C(=O)Oc2ccc(CCc3cc(OC(=O)c4ccc(OC)cc4)cc(OC(=O)c4ccc(OC)cc4)c3)cc2)cc1 [DR6] | 5.81% | 2.49% | 20.9% | 3.33% | 8.01% | 21.6% | 0 mg | 5.99% | 15.7% | 7.54% | 6.52% | 4.36% | 5.96% | –

Reference: patent US10351500B2, “Method of using of dihydro-resveratrol or its stilbenoid derivatives and/or chemical variants as antimicrobial agents” (Hong Kong Baptist University, priority 2015, dated 2019)
